{"source": "paper PMC3419223", "about": "“Transient Receptor Potential Ankyrin 1 Channel Localized to Non-Neuronal Airway Cells Promotes Non-Neurogenic Inflammation” (PLoS ONE, 2012)", "key": {"[1]": {"test_system": "C57BL/6 mouse trachea and bronchi", "test": "Plasma protein extravasation (Evans blue dye) after intratracheal instillation", "assay_type": "in vivo", "conditions": "C57BL/6 mice; for effect on SP (25 nM)- and capsaicin (100 µM)-evoked Evans blue dye extravasation (PPE): capsazepine 30 mg/kg i.p., HC-030031 300 mg/kg i.g.; for plasma protein extravasation (PPE) after instillation into the tracheal lumen: i.t. 30 µl, acrolein 5 mM, CSE 1 OD, capsaicin 100 µM, SP 25 nM", "protocol": "(§1) To defunctionalize/desensitize TRPV1 expressing primary sensory neurons, resiniferatoxin (RTX) was administered to C57BL/6 mice, as previously described, [40]. Briefly, mice were treated subcutaneously (s.c.) with a single injection of RTX (50 µg/kg) or its vehicle (10% ethanol and 10% tween 80 in isotonic saline) into the scruff of the neck under a light ether anesthesia to avoid unnecessary pain. Experiments were carried out 7 days after RTX treatment when responses to both TRPV1 and TRPA1 agonists in the treated mice were abolished, [40].\nAnesthetized (sodium pentobarbital, 50 mg/kg i.p.) C57BL/6 mice received Evans blue dye (30 mg/kg i.v.), 1 min before intratracheal (i.t) instillation (30 µl) of acrolein (5 mM), capsaicin (100 µM), SP (25 nM), CSE (1 OD) or their vehicles (isotonic saline, 1% ethanol in isotonic saline and isotonic saline). […] The tachykinin NK1 receptor antagonist, L-733,060 (2 µmol/kg i.v.; Tocris) or its vehicle were administered 15 min before the stimulus. The TRPV1 selective antagonist, capsazepine, (30 mg/kg i.p.) or its vehicle (2.5% DMSO in isotonic saline) and intragastric (i.g.) TRPA1 selective antagonist, HC-030031 (300 mg/kg i.g.) or its vehicle were administered 30 and 60 min before the stimulus, respectively. In another set of experiments ACR (5 mM, i.t.), or its vehicle, has been administered in C57BL/6 mice desensitized to RTX (50 µg/kg; s.c.). Animals were euthanized 15 min after treatment and transcardially perfused with 0.9% isotonic saline solution. The extravasated dye was extracted from mouse trachea and bronchi by overnight incubation in formamide and assayed by spectrophotometry at 620 nm, as reported previously."}, "[2]": {"test_system": "C57BL/6 mice, Trpa1+/+ or Trpa1-/- mice", "test": "KC (CXCL-1) release in bronchoalveolar lavage fluid, ELISA", "assay_type": "in vivo, mouse", "conditions": "for KC in BAL 24 hours after intratracheal instillation: i.t. 30 µl, acrolein 5 mM, CSE 1 OD, capsaicin 100 µM, SP 25 nM", "protocol": "as §1\nTrpa1^+/+ or Trpa1^−/− B6129P mice (5 per group) were exposed acutely to the cigarette smoke (CS) produced with commercial cigarettes (Marlboro Red, 12 mg of tar, 0.9 mg of nicotine each), by using a “nose-only” exposure unit. The smoke produced by cigarette burning was introduced into the exposure chamber (inner volume = 11.61 l) with the airflow generated by a mechanical ventilator (7025 Rodent Ventilator, Ugo Basile) at a rate of 250 ml/min [58]. A second mechanical ventilator was used to provide room air for dilution (1∶8) of the smoke stream. Mice were exposed to the smoke of 5 cigarettes per exposure period, twice daily, for 3 consecutive days, and sacrificed 24 hours later. Genotype-, age-, strain- and sex-matched control animals were exposed to air only in the same manner for the same duration of time. Anesthetized C57BL/6, and Trpa1^+/+ or Trpa1^−/− (C57BL/6) mice were intratracheally administered with (30 µl) acrolein (5 mM), capsaicin (100 µM), SP (25 nM) and CSE (1 OD) or their vehicles (isotonic saline, 1% ethanol in isotonic saline and isotonic saline) and sacrificed 24 hours later. The NK1 receptor antagonist, L-733,060 (2 µmol/kg i.v.; Tocris) or its vehicle (isotonic saline) were administered 15 min before the stimulus, and i.g. HC-030031 (300 mg/kg) or its vehicle (0.5% CMC in isotonic saline 0.9%) were administered 1 hour before the stimulus. In another set of experiments ACR (5 mM, i.t.), or its vehicle, has been administered in C57BL/6 mice desensitized to RTX (50 µg/kg; s.c.). Animals were sacrificed 24 hours after the last exposure/treatment with an overdose of anesthetic followed by exsanguination, and the lungs were lavaged using a cannula inserted into the trachea and instilling 1 ml of Hank's Buffer added with HEPES 10 mM and EDTA 10 mM three times. […] BAL were centrifuged at 200× g at 4°C for 10 min, and the cell-free supernatants were stored at −80°C for cytokine determination. Frozen cell-free BAL was analyzed for keratinocyte chemoattractant (CXCL-1/KC, the murine analogue of IL-8) release by using a commercial ELISA-assay (Invitrogen)."}, "TRPA1": {"target": "T1, TRPA1 (Homo sapiens, UniProt O75762)", "T1 construct": "cultured human airway cells, including fibroblasts, epithelial and smooth muscle cells express functional TRPA1 channels; endogenous in cells; host or cells: SAEC, NHLF, HBSMC (Lonza, primary); A549, IMR90 (ATCC)", "T1 sequence (O75762 whole entry)": "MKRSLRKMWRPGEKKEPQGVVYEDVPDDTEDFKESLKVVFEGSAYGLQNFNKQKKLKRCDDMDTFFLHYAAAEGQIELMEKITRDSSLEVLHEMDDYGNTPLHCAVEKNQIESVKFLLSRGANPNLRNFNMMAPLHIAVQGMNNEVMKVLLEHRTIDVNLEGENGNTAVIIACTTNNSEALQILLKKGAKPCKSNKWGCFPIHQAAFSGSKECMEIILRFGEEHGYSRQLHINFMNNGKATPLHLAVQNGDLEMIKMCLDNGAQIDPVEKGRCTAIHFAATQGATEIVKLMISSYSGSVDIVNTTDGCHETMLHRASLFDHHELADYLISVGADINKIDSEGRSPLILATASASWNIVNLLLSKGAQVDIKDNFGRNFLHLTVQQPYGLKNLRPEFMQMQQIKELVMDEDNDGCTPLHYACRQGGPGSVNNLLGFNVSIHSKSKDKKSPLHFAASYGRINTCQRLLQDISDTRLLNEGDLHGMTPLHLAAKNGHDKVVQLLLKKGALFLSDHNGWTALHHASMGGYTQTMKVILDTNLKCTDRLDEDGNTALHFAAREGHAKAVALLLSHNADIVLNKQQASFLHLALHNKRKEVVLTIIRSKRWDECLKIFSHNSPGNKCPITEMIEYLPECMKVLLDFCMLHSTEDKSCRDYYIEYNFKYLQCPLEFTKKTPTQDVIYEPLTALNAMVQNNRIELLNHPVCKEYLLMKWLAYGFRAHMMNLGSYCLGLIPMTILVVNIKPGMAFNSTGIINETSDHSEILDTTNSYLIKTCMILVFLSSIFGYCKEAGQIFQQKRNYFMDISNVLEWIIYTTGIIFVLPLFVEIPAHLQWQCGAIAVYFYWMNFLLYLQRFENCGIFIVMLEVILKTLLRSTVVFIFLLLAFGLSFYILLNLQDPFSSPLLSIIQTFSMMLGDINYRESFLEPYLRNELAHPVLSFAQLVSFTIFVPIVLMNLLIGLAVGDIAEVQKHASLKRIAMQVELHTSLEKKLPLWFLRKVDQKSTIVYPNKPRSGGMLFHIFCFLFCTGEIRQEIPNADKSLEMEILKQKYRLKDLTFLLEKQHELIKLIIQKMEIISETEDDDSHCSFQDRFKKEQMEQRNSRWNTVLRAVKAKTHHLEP", "test": "Calcium imaging (Fura-2) of TRPA1 agonist responses in human airway/lung cells", "assay_type": "cell-based", "conditions": "for EC50: intracellular calcium response", "protocol": "Human small airway epithelial cells (SAEC), normal human lung fibroblasts (NHLF) and human bronchial smooth muscle cells (HBSMC) were purchased from Lonza. Human alveolar type II epithelium-like adherent cell line (A549) and human lung embryonic fibroblast (IMR90) were purchased from American Type Culture Collection (Manassas, VA). SAEC and NHLF were cultured respectively in SAGM and FBM medium (Lonza) according to the manufacturer's instructions. IMR90 and HBSMC were cultured in DMEM supplemented with 10% FBS, 2 mM glutamine, 100 U penicillin and 100 µg/ml streptomycin (Sigma-Aldrich), and A549 were cultured in RPMI supplemented with 10% FBS, 2 mM glutamine, 100 U penicillin, 100 µg/ml streptomycin and 1 mM HEPES (Sigma-Aldrich). All cells were cultured in an atmosphere of 95% air and 5% CO2 at 37°C.\nCSE was generated as previously reported. Briefly, aqueous CSE was obtained from the combustion of four cigarettes (Marlboro Red, 12 mg of tar, 0.9 mg of nicotine each) bubbled through 50 ml of buffer and subsequently filtered through a 0.2-µm pore filter (Millipore). To ensure reproducibility among different CSE batches, the absorbance (optical density; OD) measured at 320 nm was used as a measure of the “strength” of the extract. Dilutions were made with buffer to obtain the desired absorbance. The CSE was freshly prepared on the day of the experiment and used immediately after preparation.\n(§2) For calcium fluorescence measurements, cells were incubated with 5 µM Fura-2AM ester (Alexis Biochemicals) for 40 minutes at 37°C. Intracellular calcium levels were measured and recorded with a dynamic image analysis system (Laboratory Automation 2.0; RC Software). Fluorescence was measured during excitation at 340 and 380 nm, and after correction for the individual background fluorescence signals, the ratio of the fluorescence at both excitation wavelengths (Ratio340/380) was monitored. Experiments were performed using buffer solution containing (in mM): 150 NaCl, 6 KCl, 1 MgCl2, 1.5 CaCl2, 10 glucose, 10 HEPES at pH 7.4. Cells were stimulated with cinnamaldehyde (0.1–3000 µM), acrolein (0.1–3000 µM), CSE (0.001–0.5 OD), capsaicin (1 µM) and the activating peptide (SLIGKV-NH2) of the human PAR-2 receptor (hPAR-2 AP; 100 µM), or their respective vehicles (0.3% DMSO,aqueous buffer or 1% ethanol). HC-030031 and AP18 vehicles (used in all the in vitro experiments) were 3% DMSO and 1% DMSO, respectively. Results are expressed as the increase of Ratio340/380 over the baseline normalized to the maximum effect induced by ionomycin (5 µM) added at the end of the experiment."}, "[3]": {"test_system": "IL-8 release from SAEC, NHLF and HBSMC", "test": "IL-8 release from human airway/lung cells in primary culture, ELISA", "assay_type": "cell-based", "protocol": "For IL-8 ELISA assays, HBSMC, SAEC, and NHLF were seeded in complete culture medium in 48-well plates, grown to ∼80–90% confluence, and incubated overnight in serum-free medium before treatments. All the treatments were performed in serum free medium. Cells were pretreated with the selective TRPA1 antagonists, HC-030031 and AP18, or their vehicles, for 30–60 min before treatment with freshly prepared acrolein, CSE, TNF-α and IL-1β for 18 hours at 37°C with 5% CO2. Subsequently, supernatants were collected and stored at −80°C for ELISA assay. Human IL-8 was measured using a paired antibody quantitative ELISA kit (Invitrogen) (detection limit: 5 pg/ml). The assays were performed according to the manufacturer's instructions. Vitality assay method (MTT reduction assay) is available online as (Text S1)."}, "PAR-2 receptor": {"target": "T2, PAR-2 receptor (Homo sapiens, UniProt P55085)", "T2 construct": "endogenous in cells", "T2 sequence (P55085 26-397)": "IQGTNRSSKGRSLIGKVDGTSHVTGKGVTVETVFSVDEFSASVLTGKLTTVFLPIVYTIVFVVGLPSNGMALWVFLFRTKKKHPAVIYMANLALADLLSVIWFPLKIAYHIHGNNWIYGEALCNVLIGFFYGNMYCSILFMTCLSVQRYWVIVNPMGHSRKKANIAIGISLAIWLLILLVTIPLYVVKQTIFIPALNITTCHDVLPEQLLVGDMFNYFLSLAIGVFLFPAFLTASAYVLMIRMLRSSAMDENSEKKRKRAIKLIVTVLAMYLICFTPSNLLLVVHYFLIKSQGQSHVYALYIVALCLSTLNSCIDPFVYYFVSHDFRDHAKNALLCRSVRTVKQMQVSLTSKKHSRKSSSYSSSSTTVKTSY", "test": "Calcium imaging, response to the PAR-2 activating peptide (selectivity control)", "assay_type": "cell-based", "conditions": "PAR-2 AP 100 µM; antagonist 10 µM", "protocol": "as §2"}}, "note": "Ends that are not written are not given here."}
{"molecule": "Oc1cc2c(cc1O)CN(C(=S)NCCc1ccc(Cl)cc1)CCC2", "note": "[capsazepine]", "values": [{"measurement": "effect on SP (25 nM)- and capsaicin (100 µM)-evoked Evans blue dye extravasation (PPE)", "setting": "[1]; L-733,060 2 µmol/kg i.v.", "value": "prevented"}]}
{"molecule": "substance P (RPKPQQFFGLM-NH2; ends and bridges not checked; UniProt P20366 58-68, looked up) [SP, neuropeptide tachykinin released from sensory nerve terminals]", "values": [{"measurement": "plasma protein extravasation (PPE) after instillation into the tracheal lumen", "setting": "[1]", "value": "increased PPE"}, {"measurement": "KC in BAL 24 hours after intratracheal instillation", "setting": "[2]; C57BL/6 mice", "value": "failed to increase"}]}
{"molecule": "C=CC=O", "note": "[Acrolein, acrolein]", "values": [{"measurement": "EC50", "setting": "TRPA1; A549", "value": 7.3, "unit": "µM"}, {"measurement": "EC50", "setting": "TRPA1; HBSMC", "value": 6.3, "unit": "µM"}, {"measurement": "EC50", "setting": "TRPA1; IMR90", "value": 2.9, "unit": "µM"}, {"measurement": "EC50", "setting": "TRPA1; NHLF", "value": 4.4, "unit": "µM"}, {"measurement": "EC50", "setting": "TRPA1; SAEC", "value": 56.9, "unit": "µM"}, {"measurement": "plasma protein extravasation (PPE) after instillation into the tracheal lumen", "setting": "[1]", "value": "increased PPE"}, {"measurement": "KC release in Trpa1-/- mice", "setting": "[2]; 5 mM i.t., Trpa1-/- mice (C57BL/6)", "value": "completely absent"}, {"measurement": "KC in BAL 24 hours after intratracheal instillation", "setting": "[2]; C57BL/6 mice", "value": "significantly increased"}, {"measurement": "IL-8 release", "setting": "[3]; overnight exposure", "value": "concentration-dependent IL-8 release"}]}
{"molecule": "FC(F)(F)c1cc(CO[C@H]2CCCN[C@H]2c2ccccc2)cc(C(F)(F)F)c1", "note": "[L-733,060]", "values": [{"measurement": "effect on acrolein (5 mM, i.t.)- and CSE (1 OD, i.t.)-evoked increase in PPE", "setting": "[1]; L-733,060 2 µmol/kg i.v., CPZ 30 mg/kg i.p., HC 300 mg/kg i.g.", "value": "prevent"}, {"measurement": "effect on SP (25 nM)- and capsaicin (100 µM)-evoked Evans blue dye extravasation (PPE)", "setting": "[1]; L-733,060 2 µmol/kg i.v.", "value": "prevented"}, {"measurement": "effect of pretreatment on KC release evoked by acrolein or CSE", "setting": "[2]; HC-030031 300 mg/kg i.g., L-733,060 2 µmol/kg i.v., C57BL/6 mice", "value": "failed to reduce"}]}
{"molecule": "CC(=C\\c1ccc(Cl)cc1)/C(C)=N/O", "note": "[AP18]", "values": [{"measurement": "effect of antagonist on calcium response evoked by CNM, ACR or CSE", "setting": "TRPA1; A549 and IMR90, antagonist 10 µM", "value": "abolished"}, {"measurement": "effect of antagonist on calcium responses to CNM, ACR and CSE", "setting": "TRPA1; SAEC, NHLF, HBSMC, antagonist 10 µM", "value": "prevented"}, {"measurement": "effect of antagonist on calcium response to the PAR-2 activating peptide", "setting": "PAR-2 receptor", "value": "did not affect"}, {"measurement": "effect of antagonist on CSE-evoked IL-8 release", "setting": "[3]; HC-030031 30 µM, AP18 10 µM", "value": "reduced"}, {"measurement": "effect of antagonist on IL-8 release induced by IL-1β or TNF-α", "setting": "[3]; HC-030031 30 µM, AP18 10 µM", "value": "not affected"}, {"measurement": "effect of antagonist on acrolein-evoked IL-8 release", "setting": "[3]; HC-030031 30 µM, AP18 10 µM", "value": "significantly reduced"}]}
